Legend:
Assay type in all cases: cell-based
[1] = system: various lung cancer cell lines; test: Long term proliferation (LTP) assay in various cancer cell lines
Description: The following cell lines were evaluated in an adherent cell line proliferation assay described herein: A549, HCC15, COV434, NCIH460, NCIH358, NCIH358-SMARCA2, NCIH358-SMARCA, NCIH1703, NCIH838, NCIH322, NCIH2122, NCIH2023, NCIH1355, NCIH1693, NCIH441, NCIH2030, NCIH1573, NCIH1373, NCIH1650, and NCIH1693. Plating densities for each cell line were determined based on growth curves (measured by ATP viability) and density over a 7 day timecourse. On the day before compound treatment, cells were plated in either 96-well plates in triplicate (for the day 0-7 timecourse) or 6-well plates (for replating on day 7 for the remainder of the timecourse). On Day 0, cells were either untreated, DMSO-treated, or treated with increasing concentrations of Compound 139 up to 10 μM. Plates were read on Day 0, Day 4, and Day 7 using a luminescent cell viability assay, with compound/media being replenished on Day 4. On Day 7, the 6-well plates were trypsinized, centrifuged, and resuspended in fresh media for counting by Vi-Cell. Cells from each treatment were replated at the original density in 96-well plates in triplicate. Cells were allowed to adhere to the plate overnight, and cells were treated as on Day 0. On Day 7, 11 and 14, plates were read using a luminescent cell viability assay, with compound/media being replenished on Day 11. Averages of triplicates were used to plot proliferation over the timecourse, and calculate IC50 values.
The following cell lines were evaluated in an adherent cell line proliferation assay described herein: NCIH522, CORL23, NCIH1693, NCIH1838, HCC1588, NCIH1435, NCIH2085, HCC827, NCIH1792, NCIH596, NCIH1568, NCIH1793, NCIH2126, CORL105, NCIH1573, NCIH1693, NCIH1395, HCC44, NCIH2126, NCIH520, NCIH1373, NCIH2172, NCIH23, HCT116, […], NCIH2347, NCIH2110, NCIH647, NCIH1437, AGS, KMS11, BT549, HUPT4, NCIH1048, TE10, and TE14. Cell densities were determined by growth curve as per protocol 1. For the proliferation assay, on Day 0, cells were either untreated, DMSO-treated, or treated with increasing concentrations of Compound 139 up to 10 μM. Plates were read on Day 0, Day 4, and Day 7 using luminescent cell viability assay. On Day 7, the 6-well plates were trypsinized, centrifuged, and resuspended in fresh media for counting by Vi-Cell. Cells from each treatment were replated at the original density in 96-well plates in triplicate. Cells were treated with compound as on Day 0. On Day 7, 11 and 14, plates were read using a luminescent cell viability assay. Averages of triplicates were used to plot proliferation over the timecourse, and calculate IC50 values.

A549 cells [2] = test: High-throughput proliferation (HTP) assay for A549 cells (CellTiter-Glo, 7 days); conditions: Homo sapiens, 168 h, read-out: A549 SMARCA2 IC50
Method in brief: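 Seven-day growth of A549 (62.5 cells/well, F12K with 10% HI-FBS, 37° C.) with compound, read by CellTiter-Glo ATP luminescence. Percent inhibition scaled between DMSO wells and 10 μM Doxorubicin wells, then fitted for EC50 and IC50.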

A549 cells [3] = test: Long term proliferation (LTP) assay, day 15 IC50 in A549 cells; conditions: Homo sapiens, 360 h
[4] = Homo sapiens, A549, A549, SMARCA4 protein Absent, Lung NSCLC adenocarcinoma
[5] = Homo sapiens, COR-L105, CORL105, SMARCA4 protein Present, Lung NSCLC adenocarcinoma
[6] = Homo sapiens, HCT-116, HCT116, SMARCA4 protein Present, Colon Cancer
[7] = Homo sapiens, NCI-H358, NCIH358, SMARCA4 protein Present, Lung NSCLC bronchioloalveolar adenocarcinoma
[8] = Homo sapiens, NCI-H358, NCIH358 SMARCA4, SMARCA4 protein Absent, Lung NSCLC bronchioloalveolar adenocarcinoma
[9] = Homo sapiens, NCI-H460, NCIH460, SMARCA4 protein Present, Lung NSCLC large cell carcinoma
[10] = Homo sapiens, NCI-H522, NCIH522, SMARCA4 protein Absent, Lung NSCLC adenocarcinoma
[11] = Homo sapiens, NCI-H1299, NCIH1299, Lung NSCLC non small cell carcinoma
[12] = NCI-H1568, NCIH1568, SMARCA4 protein Absent, Lung NSCLC adenocarcinoma
[13] = NCIH2085, SMARCA4 protein Present, Lung NSCLC adenocarcinoma
[14] = RERFLCAI, SMARCA4 protein Absent, Lung NSCLC squamous cell carcinoma
[15] = HCC15, HCC15, SMARCA4 protein Absent, Lung NSCLC squamous cell carcinoma
[16] = Homo sapiens, COR-L23, CORL23, SMARCA4 protein Present, Lung NSCLC large cell carcinoma
[17] = Homo sapiens, Calu-6, CALU6, SMARCA4 protein Present, Lung NSCLC undifferentiated carcinoma
[18] = Homo sapiens, HCC44, HCC44, SMARCA4 protein Present, Lung NSCLC adenocarcinoma
[19] = Homo sapiens, NCI-H23, NCIH23, SMARCA4 protein Absent, Lung NSCLC non small cell carcinoma
[20] = Homo sapiens, NCI-H358, NCIH358 SMARCA2, SMARCA4 protein Present, Lung NSCLC bronchioloalveolar adenocarcinoma
[21] = Homo sapiens, NCI-H441, NCIH441, SMARCA4 protein Present, Lung NSCLC adenocarcinoma
[22] = Homo sapiens, NCI-H596, NCIH596, Lung NSCLC mixed adenosquamous carcinoma
[23] = Homo sapiens, NCI-H810, NCIH810, SMARCA4 protein Present, Lung NSCLC large cell carcinoma
[24] = Homo sapiens, NCI-H1437, NCIH1437, SMARCA4 protein Present, Lung NSCLC adenocarcinoma
[25] = Homo sapiens, NCI-H1563, NCIH1563, SMARCA4 protein Present, Lung NSCLC adenocarcinoma
[26] = Homo sapiens, NCI-H1573, NCIH1573, SMARCA4 protein Absent, Lung NSCLC adenocarcinoma
[27] = Homo sapiens, NCI-H1693, NCIH1693, SMARCA4 protein Absent, Lung NSCLC adenocarcinoma
[28] = Homo sapiens, NCI-H1975, NCIH1975, SMARCA4 protein Present, Lung NSCLC non small cell carcinoma
[29] = Homo sapiens, NCI-H2030, NCIH2030, SMARCA4 protein Absent, Lung NSCLC non small cell carcinoma
[30] = Homo sapiens, NCI-H2122, NCIH2122, SMARCA4 protein Present, Lung NSCLC adenocarcinoma
[31] = Homo sapiens, PANC-1, PANC1, Pancreatic Cancer ductal carcinoma
[32] = Homo sapiens, SW900, SW900, SMARCA4 protein Present, Lung NSCLC squamous cell carcinoma
[33] = Hs766T, Pancreatic Cancer ductal carcinoma

## N#Cc1cc(C(=O)Nc2cc(F)c(=O)n(CC(F)F)c2)sc1C(F)(F)F [Compound 82c, 4-cyano-N-[1-(2,2-difluoroethyl)-5-fluoro-6-oxopyridin-3-yl]-5-(trifluoromethyl)thiophene-2-carboxamide]
[1]; [4]
  IC50: 0.259 µM
[1]; [5]
  IC50: 0.17 µM
[1]; [6]
  IC50: 0.142 µM
[1]; [7]
  IC50: 1.7 µM
[1]; [8]
  IC50: 0.383 µM
[1]; [9]
  IC50: 10 µM
[1]; [10]
  IC50: 9.7 µM
[1]; [11]
  IC50: 1.7 µM
[1]; Homo sapiens, NCI-H1581, NCIH1581, SMARCA4 protein Absent, Lung NSCLC large cell carcinoma
  IC50: 10 µM
[1]; [12]
  IC50: 10 µM
[1]; [13]
  IC50: 10 µM
[1]; [14]
  IC50: 0.026 µM
A549 cells [2]
  IC50: 0.589 µM
A549 cells [3]
  IC50: 0.259 µM

## O=C(Nc1cc(F)c(=O)n(CC(F)F)c1)c1cc(Cl)c(C(F)(F)F)s1 [Compound 298, 4-Chloro-N-(1-(2,2-difluoroethyl)-5-fluoro-6-oxo-1,6-dihydropyridin-3-yl)-5-(trifluoromethyl)thiophene-2-carboxamide]
[1]; COV644, Ovarian Cancer
  IC50: 5.6 µM
[1]; [15]
  IC50: 0.569 µM
[1]; [4]
  IC50: 0.142 µM
[1]; [16]
  IC50: 1.4 µM
[1]; [5]
  IC50: 0.715 µM
[1]; [17]
  IC50: 1.4 µM
[1]; Homo sapiens, DLD-1, DLD1, SMARCA4 protein Present, Colon Cancer adenocarcinoma
  IC50: 1.4 µM
[1]; [18]
  IC50: 3.3 µM
[1]; [6]
  IC50: 0.836 µM
[1]; Homo sapiens, HT-1376, HT1376, Bladder Cancer transitional cell carcinoma
  IC50: 0.385 µM
[1]; Homo sapiens, MIA PaCa-2, MIAPACA2, Pancreatic Cancer ductal carcinoma
  IC50: 0.871 µM
[1]; [19]
  IC50: 0.891 µM
[1]; [7]
  IC50: 10 µM
[1]; [20]
  IC50: 5.1 µM
[1]; [8]
  IC50: 0.312 µM
[1]; [21]
  IC50: 5 µM
[1]; [9]
  IC50: 10 µM
[1]; [10]
  IC50: 10 µM
[1]; [22]
  IC50: 10 µM
[1]; [23]
  IC50: 0.946 µM
[1]; [11]
  IC50: 0.548 µM
[1]; [24]
  IC50: 1.4 µM
[1]; [25]
  IC50: 1.1 µM
[1]; [26]
  IC50: 0.701 µM
[1]; [27]
  IC50: 0.202 µM
[1]; [28]
  IC50: 10 µM
[1]; [29]
  IC50: 1.1 µM
[1]; [30]
  IC50: 3.9 µM
[1]; [31]
  IC50: 0.223 µM
[1]; [32]
  IC50: 10 µM
[1]; [33]
  IC50: 10 µM
[1]; [12]
  IC50: 0.509 µM
[1]; OV7, Ovarian Cancer
  IC50: 0.154 µM
[1]; [14]
  IC50: 0.135 µM
A549 cells [2]
  IC50: 0.682 µM
A549 cells [3]
  IC50: 0.142 µM

## N#Cc1sc(C(=O)Nc2cc(F)c(=O)n(CCF)c2)cc1Cl [Compound 139]
[1]; [15]
  IC50: 0.677 µM
[1]; HCC1588, HCC1588, SMARCA4 protein Present, Lung NSCLC squamous cell carcinoma
  IC50: 0.906 µM
[1]; [4]
  IC50: 0.316 µM
[1]; [16]
  IC50: 1.7 µM
[1]; [5]
  IC50: 0.095 µM
[1]; [17]
  IC50: 1.21 µM
[1]; [18]
  IC50: 1.27 µM
[1]; Homo sapiens, HCC827, HCC827, SMARCA4 protein Present, Lung NSCLC adenocarcinoma (bronchioalveolar features)
  IC50: 10 µM
[1]; [6]
  IC50: 0.169 µM
[1]; [19]
  IC50: 1.1 µM
[1]; [7]
  IC50: 10 µM
[1]; [20]
  IC50: 10 µM
[1]; [8]
  IC50: 0.347 µM
[1]; [21]
  IC50: 5.2 µM
[1]; [9]
  IC50: 10 µM
[1]; [10]
  IC50: 10 µM
[1]; [22]
  IC50: 8.8 µM
[1]; [23]
  IC50: 0.174 µM
[1]; Homo sapiens, NCI-H838, NCIH838, SMARCA4 protein Present, Lung NSCLC adenocarcinoma
  IC50: 10 µM
[1]; [11]
  IC50: 0.857 µM
[1]; Homo sapiens, NCI-H1395, NCIH1395, SMARCA4 protein Present, Lung NSCLC adenocarcinoma
  IC50: 10 µM
[1]; [24]
  IC50: 1.5 µM
[1]; [25]
  IC50: 2.3 µM
[1]; [26]
  IC50: 0.504 µM
[1]; Homo sapiens, NCI-H1650, NCIH1650, SMARCA4 protein Present, Lung NSCLC bronchioalveolar carcinoma
  IC50: 5 µM
[1]; [27]
  IC50: 0.101 µM
[1]; Homo sapiens, NCI-H1792, NCIH1792, SMARCA4 protein Present, Lung NSCLC adenocarcinoma
  IC50: 10 µM
[1]; Homo sapiens, NCI-H1793, NCIH1793, SMARCA4 protein Present, Lung NSCLC adenocarcinoma
  IC50: 0.89 µM
[1]; Homo sapiens, NCI-H1838, NCIH1838, SMARCA4 protein Present, Lung NSCLC non-small cell lung cancer
  IC50: 0.587 µM
[1]; [28]
  IC50: 10 µM
[1]; [29]
  IC50: 1.15 µM
[1]; [30]
  IC50: 2.8 µM
[1]; Homo sapiens, NCI-H2126, NCIH2126, SMARCA4 protein Present, Lung NSCLC adenocarcinoma
  IC50: 5.5 µM
[1]; Homo sapiens, NCI-H2342, NCIH2342, SMARCA4 protein Present, Lung NSCLC non-small cell lung cancer
  IC50: 2.5 µM
[1]; [31]
  IC50: 10 µM
[1]; [32]
  IC50: 10 µM
[1]; [33]
  IC50: 1 µM
[1]; NCI-H1435, NCIH1435, SMARCA4 protein Present, Lung NSCLC adenocarcinoma
  IC50: 0.443 µM
[1]; [12]
  IC50: 0.395 µM
[1]; [13]
  IC50: 0.314 µM
[1]; [14]
  IC50: 0.061 µM
[1]; lung cancer cell lines of Table 5, FIG. 1
  sensitivity to inhibition of SMARCA2 (IC50): cell lines with loss or absence of SMARCA4 versus cell lines with SMARCA4 protein present: more sensitive
A549 cells [2]
  IC50: 0.868 µM
A549 cells [3]
  IC50: 0.316 µM

Source: patent US20220356174A1, “PYRIDIN-2-ONE COMPOUNDS USEFUL AS SMARCA2 ANTAGONISTS” (Epizyme, Inc., priority 2018, published 2022)
